Data as given in ChEMBL document CHEMBL3887005, “N-cyclopropyl-N-piperidinyl-amides, pharmaceutical compositions containing them, and uses thereof” (2016).

Biological target: T1, Glucose-dependent insulinotropic receptor (Homo sapiens, UniProt Q8TDV5)
T1 sequence (Q8TDV5 whole entry): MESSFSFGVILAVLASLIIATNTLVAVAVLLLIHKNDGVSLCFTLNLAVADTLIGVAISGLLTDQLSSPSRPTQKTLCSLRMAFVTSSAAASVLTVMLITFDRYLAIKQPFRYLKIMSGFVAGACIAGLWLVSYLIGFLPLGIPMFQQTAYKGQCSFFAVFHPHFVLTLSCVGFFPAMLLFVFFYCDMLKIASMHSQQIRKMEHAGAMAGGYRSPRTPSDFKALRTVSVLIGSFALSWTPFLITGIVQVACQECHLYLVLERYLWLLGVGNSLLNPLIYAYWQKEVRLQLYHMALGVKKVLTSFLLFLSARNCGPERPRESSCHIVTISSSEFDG
Experiment: AlphaScreen cAMP Assay: MIN6 cells [Miyazaki J et al. Endocrinology. 1990 July; 127(1):126-32] are stably transfected with an expression vector for human GPR119 cDNA (Acc. No. NP_848566). Min-6/hGPR119 cells are cultured in DMEM, 10% FBS, 50 uM β-mercaptoethanol, 0.3 mg/mL Geniticin, 2 mM GlutaMAX at 37° C. 5% CO2. For the assay, the cells are seeded in Optiplates (white, 384-well, 160W-barcoded, TC, sterile with lid, Cat. No. #6007688 (Perkin Elmer); 10000 cells/well; 50 ul). The plates covered with lids are then incubated for 24 hours at 37° C./5% CO2. After the medium is aspirated from the wells completely, 10 ul of the test compound are added, the compounds are diluted using stimulating buffer (140 mM NaCl, 3.6 mM KCl, 0.5 mM NaH2PO4, 0.5 mM MgSO4, 1.5 mM CaCl2, 10 mM Hepes, 5 mM NaHCO3; pH 7.4. 0.5 mM IBMX and 0.1% BSA, the final DMSO concentration is 1%). After 45 minutes incubation at room temperature (approx. 20° C.), the cAMP concentrations are determined using the AlphaScreen cAMP Assay Kit (Cat. No. #6760625R from PerkinElmer). […]
Type: functional, cell-based

| EC50 | SMILES |
| --- | --- |
| 57 nM | CC(C)(C)OC(=O)N1CCC(N(C(=O)c2ccc(-c3ccc(CS(C)(=O)=O)cc3)cc2)C2CC2)CC1 |
| 59 nM | O=C(OC1CCCCC1)N1CCC(N(C(=O)c2ccc(-c3cnco3)cc2)C2CC2)CC1 |
